Source: patent US7902170B2, “Influenza virus binding, sialylated oligosaccharide substance and use thereof” (priority 2000, dated 2011)
Entries after “also recorded” stand apart in the source; their conditions may differ.

Tested on: human influenza A virus X-113 reassortant vaccine strain (hemagglutinin and neuraminidase of A/Texas/36/91, H1N1)
Assay type: binding

Row | Substance | Binding of human influenza virus HRP conjugate to glycolipid on TLC plate
1 | NeuAcα3Galβ4GlcNAcβ3Galβ4(Fucα3)GlcNAcβ- [VIM-2] | excluded; also recorded: no binding
2 | NeuAcα6Galβ4GlcNAcβ3Galβ4GlcNAcβ3Galβ4GlcβCer [7-sugar NeuAc-6-neolacto ganglioside] | did not show binding; also recorded: no binding at all
3 | sulfatide | probably unspecific interaction
4 | NeuAcα6Galβ4GlcNAcβ3Galβ4GlcβCer [S-6-PG] | did not show binding; also recorded: no binding at all
5 | NeuAcα3Galβ4(Fucα3)GlcNAcβ- | excluded; also recorded: no binding
6 | NeuAcα3Galβ4GlcβCer [GM3] | did not see binding
